According to patent publication US20070032529A1, “Pyrazole compounds and their use as antidiabetes agents” (Japan Tobacco Inc., priority 2005, published 2007):
Counter-ions that a name gives are not always drawn.

Legend:
db/db mice = assay: Measuring blood plasma glucose concentration in db/db mice (hypoglycemic effect); format: in vivo; parameters: key: ++: compounds exhibiting statistically significant hypoglycemic effect at a dose of 10 mg/kg or less; +: compounds exhibiting not significant but obvious hypoglycemic effect at a dose of 10 mg/kg; settings: for vivo (hypoglycemic effect in db/db mice): db/db mice fasted 4 h, oral administration, plasma glucose 1 and 3 hours after administration, dose 10 mg/kg or less, Dunnett test vs solvent; for vivo (hypoglycemic effect): db/db mice, blood plasma glucose, dose of 10 mg/kg or less
Outline: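 db/db mice aged 9-18 weeks, grouped 5 or 8 per group matched on plasma glucose, fasted 4 h, then dosed orally with compound or 0.5% methylcellulose vehicle. Plasma glucose measured 1 and 3 h post-dose; each timepoint compared against vehicle by Dunnett test.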

[1] = target: T1, recombinant human liver glycogen phosphorylase (Homo sapiens, UniProt P06737); assay: Measuring liver glycogen phosphorylase activity (forward reaction system, NADPH absorbance at 340 nm); format: biochemical
T1 construct: made in house; host or cells: Sf9 insect cells (crude homogenate, diluted, used as the enzyme solution)
T1 sequence (P06737 1-847): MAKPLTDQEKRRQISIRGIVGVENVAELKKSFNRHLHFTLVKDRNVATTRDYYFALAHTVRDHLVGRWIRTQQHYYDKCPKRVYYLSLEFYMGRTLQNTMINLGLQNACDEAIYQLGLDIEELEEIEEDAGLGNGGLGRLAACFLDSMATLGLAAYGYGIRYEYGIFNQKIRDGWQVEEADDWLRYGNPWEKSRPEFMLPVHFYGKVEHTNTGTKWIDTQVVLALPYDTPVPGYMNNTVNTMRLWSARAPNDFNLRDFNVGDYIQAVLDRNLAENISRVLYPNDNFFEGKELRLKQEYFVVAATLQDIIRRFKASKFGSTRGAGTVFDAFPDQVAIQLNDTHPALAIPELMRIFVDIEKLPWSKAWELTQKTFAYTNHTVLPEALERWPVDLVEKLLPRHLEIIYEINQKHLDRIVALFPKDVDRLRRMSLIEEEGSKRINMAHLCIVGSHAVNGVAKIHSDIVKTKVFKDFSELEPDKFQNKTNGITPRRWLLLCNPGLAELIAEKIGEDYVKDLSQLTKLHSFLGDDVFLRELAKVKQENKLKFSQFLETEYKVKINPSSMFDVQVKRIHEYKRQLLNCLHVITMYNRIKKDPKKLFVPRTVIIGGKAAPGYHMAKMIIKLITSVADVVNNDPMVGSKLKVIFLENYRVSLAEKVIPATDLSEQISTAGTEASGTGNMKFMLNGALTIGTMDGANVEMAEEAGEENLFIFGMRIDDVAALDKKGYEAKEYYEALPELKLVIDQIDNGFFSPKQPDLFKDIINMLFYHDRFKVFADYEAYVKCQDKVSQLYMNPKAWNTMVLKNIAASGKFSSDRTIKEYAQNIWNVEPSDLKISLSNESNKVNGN
Outline: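 Compounds in 1% DMSO; activity taken as blank-subtracted 340 nm absorbance change across 75 min at room temperature. Forward reaction: glucose-1-phosphate released from glycogen converted by coupling enzymes, yielding NADPH; enzyme from recombinant Sf9 homogenate, reaction containing glucose, pH 6.8. IC50 from two-point linear interpolation.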

[2] = enzyme inhibitory activity with respect to liver glycogen phosphorylase, class symbols
[3] = human liver glycogen phosphorylase, class symbol

| SMILES | vivo (hypoglycemic effect in db/db mice) (db/db mice) | IC50 [1, 2] [nM] | vivo (hypoglycemic effect) (db/db mice) | IC50 [1, 3] [nM] |
| --- | --- | --- | --- | --- |
| CCCCN(CC)C(=O)c1cc(NC(=O)c2cc(F)c(F)cc2Cl)[nH]n1 [Example 1-87] | + | < 100 | – | – |
| CC(C)Oc1ccc(CNC(=O)c2cc(NC(=O)c3cc(F)c(F)cc3Cl)[nH]n2)cn1 [Example 1-31] | + | < 100 | – | – |
| Cc1cc(C)c(CNC(=O)c2cc(NC(=O)c3cc(F)c(F)cc3Cl)[nH]n2)cn1 [Example 2-4-1, 5-(2-chloro-4,5-difluoro-benzoylamino)-1H-pyrazole-3-carboxylic acid (4,6-dimethyl-pyridin-3-ylmethyl)-amide dihydrochloride] | ++ | < 100 | – | – |
| O=C(NCc1cccnc1Cl)c1cc(NC(=O)c2cc(F)c(F)cc2Cl)[nH]n1 [Example 2-24] | + | < 100 | – | – |
| CCOCCN(C(=O)c1cc(NC(=O)c2cc(F)c(F)cc2Cl)[nH]n1)c1ccccc1 [Example 4-18] | + | < 100 | – | – |
| Cc1cnc(CNC(=O)c2cc(NC(=O)c3cc(F)c(F)cc3Cl)[nH]n2)cn1 [Example 5-35] | + | < 100 | – | – |
| Cc1ccnc(C)c1CNC(=O)c1cc(NC(=O)c2cc(F)c(F)cc2Cl)[nH]n1 [Example 1-3-1, 5-(2-chloro-4,5-difluoro-benzoylamino)-1H-pyrazole-3-carboxylic acid (2,4-dimethyl-pyridin-3-ylmethyl)-amide dihydrochloride] | ++ | < 100 | – | – |
| CCCCN(Cc1cccnc1)C(=O)c1cc(NC(=O)c2cc(F)c(F)cc2Cl)[nH]n1 [Example 1-107] | ++ | < 100 | – | – |
| CN(C)c1ccc(CNC(=O)c2cc(NC(=O)c3cc(F)c(F)cc3Cl)[nH]n2)cc1 [Example 3-24] | + | < 100 | – | – |
| COCCCN(C(=O)c1cc(NC(=O)c2cc(F)c(F)cc2Cl)[nH]n1)C1CCCCC1 [Example 1-99] | + | < 100 | – | – |
| Cc1ncoc1CNC(=O)c1cc(NC(=O)c2cc(F)c(F)cc2Cl)[nH]n1 [Example 1-2, 5-(2-chloro-4,5-difluoro-benzoylamino)-1H-pyrazole-3-carboxylic acid (4-methyl-oxazol-5-ylmethyl)-amide] | ++ | < 100 | – | – |
| O=C(NCc1c(F)cccc1F)c1cc(NC(=O)c2cc(F)c(F)cc2Cl)[nH]n1 [Example 1-21] | + | < 100 | – | – |
| COCCN(C(=O)c1cc(NC(=O)c2cc(F)c(F)cc2Cl)[nH]n1)C1CCCC1 [Example 1-98] | + | < 100 | – | – |
| C=CCN(C(=O)c1cc(NC(=O)c2cc(F)c(F)cc2Cl)[nH]n1)C1CCCCC1 [Example 1-81] | + | < 100 | – | – |
| CS(=O)(=O)Nc1cccc(CNC(=O)c2cc(NC(=O)c3cc(F)c(F)cc3Cl)[nH]n2)c1 [Example 2-15] | + | < 100 | – | – |
| O=C(O)c1ccc(CNC(=O)c2cc(NC(=O)c3cc(F)c(F)cc3Cl)[nH]n2)cc1 [Example 1-73] | + | < 100 | – | – |
| COc1ccc(CNC(=O)c2cc(NC(=O)c3cc(F)c(F)cc3Cl)[nH]n2)cc1 [Example 1-68] | + | < 100 | – | – |
| O=C(NCc1ccc(C(F)(F)F)nc1)c1cc(NC(=O)c2cc(F)c(F)cc2Cl)[nH]n1 [Example 3-40] | ++ | < 100 | – | – |
| O=C(NCc1cccnc1Oc1ccccc1)c1cc(NC(=O)c2cc(F)c(F)cc2Cl)[nH]n1 [Example 1-25] | + | < 100 | – | – |
| O=C(NCc1ccc(F)cc1)c1cc(NC(=O)c2cc(F)c(F)cc2Cl)[nH]n1 [Example 1-70] | ++ | < 100 | – | – |
| Cl.Nc1cccc(F)c1CNC(=O)c1cc(NC(=O)c2cc(F)c(F)cc2Cl)[nH]n1 [Example 6-39] | – | – | + | < 100 |
| CCCN(CCOC)C(=O)c1cc(NC(=O)c2cc(F)c(F)cc2Cl)[nH]n1 [Example 1-95] | + | < 100 | – | – |
| Cc1ccc(CNC(=O)c2cc(NC(=O)c3cc(F)c(F)cc3Cl)[nH]n2)nc1 [Example 2-10] | + | < 100 | – | – |

| SMILES | vivo (hypoglycemic effect in db/db mice) (db/db mice) | IC50 [1, 2] [nM] | vivo (hypoglycemic effect) (db/db mice) | IC50 [1, 3] [nM] |
| --- | --- | --- | --- | --- |
| O=C(NN1CCOCC1)c1cccc(CNC(=O)c2cc(NC(=O)c3cc(F)c(F)cc3Cl)[nH]n2)c1 [Example 5-12] | + | < 100 | – | – |
| COc1cccc(OC)c1CNC(=O)c1cc(NC(=O)c2cc(F)c(F)cc2Cl)[nH]n1 [Example 1-15] | + | < 100 | – | – |
| O=C(O)c1cccc(CNC(=O)c2cc(NC(=O)c3cc(F)c(F)cc3Cl)[nH]n2)c1 [Example 3-39] | + | < 100 | – | – |
| COC(=O)c1cccc(CNC(=O)c2cc(NC(=O)c3cc(F)c(F)cc3Cl)[nH]n2)c1 [Example 3-38] | + | < 100 | – | – |
| COCCN(C(=O)c1cc(NC(=O)c2cc(F)c(F)cc2Cl)[nH]n1)C1CCCCC1 [Example 1-90] | + | < 100 | – | – |
| COc1cccc(CNC(=O)c2cc(NC(=O)c3cc(F)c(F)cc3Cl)[nH]n2)c1 [Example 1-67] | + | < 100 | – | – |
| O=C(NCc1ccnc(C(=O)NN2CCOCC2)c1)c1cc(NC(=O)c2cc(F)c(F)cc2Cl)[nH]n1 [Example 5-14] | + | < 100 | – | – |
| O=C(NCc1ccco1)c1cc(NC(=O)c2cc(F)c(F)cc2Cl)[nH]n1 [Example 3-25] | + | < 100 | – | – |
| Cc1cc(F)c(F)cc1C(=O)Nc1cc(C(=O)NCc2cccnc2)n[nH]1 [Example 7-10] | – | – | ++ | < 100 |
| COc1ccc(CN(CC2CC2)C(=O)c2cc(NC(=O)c3cc(F)c(F)cc3Cl)[nH]n2)cn1 [Example 1-128] | + | < 100 | – | – |
| Cc1cccnc1CNC(=O)c1cc(NC(=O)c2cc(F)c(F)cc2Cl)[nH]n1 [Example 2-8] | + | < 100 | – | – |
| Cc1ncsc1CNC(=O)c1cc(NC(=O)c2cc(F)c(F)cc2Cl)[nH]n1.Cl [Example 5-32] | + | < 100 | – | – |
| Cc1cccc(CNC(=O)c2cc(NC(=O)c3cc(F)c(F)cc3Cl)[nH]n2)c1 [Example 3-33] | + | < 100 | – | – |
| COc1ccc(CN(C(=O)c2cc(NC(=O)c3cc(F)c(F)cc3Cl)[nH]n2)C2CCC2)cn1 [Example 1-127] | + | < 100 | – | – |
| CCCCN(C(=O)c1cc(NC(=O)c2cc(F)c(F)cc2Cl)[nH]n1)c1ccc(CC(=O)O)cc1 [Example 4-46] | + | < 100 | – | – |
| Cc1nc(C)c(CNC(=O)c2cc(NC(=O)c3cc(F)c(F)cc3Cl)[nH]n2)s1.Cl [Example 5-33] | + | < 100 | – | – |
| O=C(NCc1ccc(-n2cccn2)nc1)c1cc(NC(=O)c2cc(F)c(F)cc2Cl)[nH]n1 [Example 1-137] | + | < 100 | – | – |
| COc1ccc(CNC(=O)c2cc(NC(=O)c3cc(F)c(F)cc3Cl)[nH]n2)c(OC)n1 [Example 3-46] | + | < 100 | – | – |
| COc1ccc(CN(C(=O)c2cc(NC(=O)c3cc(F)c(F)cc3Cl)[nH]n2)C2CC2)cn1 [Example 1-126] | + | < 100 | – | – |
| COc1ccc(CNC(=O)c2cc(NC(=O)c3cc(F)c(F)cc3C)[nH]n2)cn1 [Example 5-2] | + | < 100 | – | – |
| O=C(NCc1nc2ccccc2s1)c1cc(NC(=O)c2cc(F)c(F)cc2Cl)[nH]n1 [Example 1-52] | + | < 100 | – | – |
| COc1ccnc(CNC(=O)c2cc(NC(=O)c3cc(F)c(F)cc3Cl)[nH]n2)c1OC [Example 1-59] | ++ | < 100 | – | – |
